From patent US20230257372A1 (CHONG KUN DANG PHARMACEUTICAL CORP., priority 2020, published 2023)
Read-outs that look alike come from different tables or passages of the source.

Columns and labels:
human recombinant HDAC1 = target: T1, human recombinant HDAC1 (Homo sapiens, UniProt Q13547); assay: HDAC1 enzyme activity inhibition (HDAC Fluorimetric Drug Discovery Kit); format: biochemical; conditions: read-out: HDAC1
T1 construct: purchased Enzo Life Science, Inc. BML-SE456
Procedure, shortened: (§1)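 Fluorescence from a Fluor de Lys developer step (30 minutes) reports residual deacetylation after a 60-minute, 30° C reaction of […] enzyme with 10 μM substrate and 5-fold compound dilutions.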

human recombinant HDAC6 = target: T2, human recombinant HDAC6 (Homo sapiens, UniProt Q9UBN7); assay: HDAC6 enzyme activity inhibition (HDAC Fluorimetric Drug Discovery Kit); format: biochemical
T2 construct: purchased Calbiochem Inc. 382180
T2 sequence (Q9UBN7 1-1215): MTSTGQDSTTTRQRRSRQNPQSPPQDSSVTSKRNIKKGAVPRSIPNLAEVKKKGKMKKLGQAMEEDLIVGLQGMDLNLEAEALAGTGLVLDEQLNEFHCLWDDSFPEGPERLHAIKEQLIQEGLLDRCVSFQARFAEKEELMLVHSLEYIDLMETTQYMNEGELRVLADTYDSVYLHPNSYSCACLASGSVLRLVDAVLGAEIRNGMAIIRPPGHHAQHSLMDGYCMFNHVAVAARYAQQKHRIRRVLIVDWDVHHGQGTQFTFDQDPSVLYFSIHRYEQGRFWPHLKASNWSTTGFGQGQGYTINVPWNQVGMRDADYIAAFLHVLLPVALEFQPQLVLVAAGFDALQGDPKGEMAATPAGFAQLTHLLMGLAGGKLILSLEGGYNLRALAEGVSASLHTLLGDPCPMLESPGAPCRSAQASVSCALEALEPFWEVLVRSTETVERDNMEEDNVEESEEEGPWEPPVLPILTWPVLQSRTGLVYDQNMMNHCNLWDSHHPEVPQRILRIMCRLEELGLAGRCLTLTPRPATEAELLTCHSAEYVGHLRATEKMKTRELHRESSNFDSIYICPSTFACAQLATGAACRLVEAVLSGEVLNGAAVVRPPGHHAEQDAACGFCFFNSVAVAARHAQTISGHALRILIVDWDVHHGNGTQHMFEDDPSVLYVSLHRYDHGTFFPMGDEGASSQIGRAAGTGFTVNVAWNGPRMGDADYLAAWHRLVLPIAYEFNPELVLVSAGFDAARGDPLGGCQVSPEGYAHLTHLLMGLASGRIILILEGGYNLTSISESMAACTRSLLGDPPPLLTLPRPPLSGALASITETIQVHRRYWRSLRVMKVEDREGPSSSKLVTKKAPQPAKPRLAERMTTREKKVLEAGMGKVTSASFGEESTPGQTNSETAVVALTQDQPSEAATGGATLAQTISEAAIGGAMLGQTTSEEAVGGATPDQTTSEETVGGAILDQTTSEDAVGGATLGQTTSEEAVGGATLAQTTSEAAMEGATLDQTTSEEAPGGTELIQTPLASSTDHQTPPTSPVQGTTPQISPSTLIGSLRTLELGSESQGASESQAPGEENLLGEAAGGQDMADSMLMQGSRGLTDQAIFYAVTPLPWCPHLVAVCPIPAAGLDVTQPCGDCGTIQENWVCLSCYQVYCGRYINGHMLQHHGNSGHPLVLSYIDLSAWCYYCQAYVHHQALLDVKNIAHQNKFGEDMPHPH
Procedure, shortened: as §1

[1] = human recombinant HDAC1, Fluor de Lys substrate, 30° C. 60 minutes
[2] = human recombinant HDAC6, same protocol as HDAC1
[3] = human recombinant HDAC1, IC50 calculated with GraphPad Prism
[4] = human recombinant HDAC6, IC50 calculated with GraphPad Prism

T1 sequence (Q13547 whole entry): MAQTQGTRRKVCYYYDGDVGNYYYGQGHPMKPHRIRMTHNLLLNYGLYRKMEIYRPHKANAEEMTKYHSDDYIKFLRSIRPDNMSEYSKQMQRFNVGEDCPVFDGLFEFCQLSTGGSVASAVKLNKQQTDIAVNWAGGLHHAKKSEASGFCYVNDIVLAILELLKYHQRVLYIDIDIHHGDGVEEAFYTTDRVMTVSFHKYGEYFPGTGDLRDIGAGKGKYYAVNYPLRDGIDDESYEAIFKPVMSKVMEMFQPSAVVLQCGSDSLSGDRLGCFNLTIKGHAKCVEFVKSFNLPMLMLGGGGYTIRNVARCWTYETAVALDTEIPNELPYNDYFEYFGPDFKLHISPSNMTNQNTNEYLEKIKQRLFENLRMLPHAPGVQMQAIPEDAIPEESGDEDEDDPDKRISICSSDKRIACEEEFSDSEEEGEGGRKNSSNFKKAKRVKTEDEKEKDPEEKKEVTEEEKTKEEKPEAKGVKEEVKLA

IC50 (human recombinant HDAC1; [1]) | HDAC6 selectivity (fold) (human recombinant HDAC6; HDAC6 over HDAC1) | IC50 (human recombinant HDAC6; [2]) | IC50 (human recombinant HDAC1; [3]) | HDAC6 selectivity (fold) (human recombinant HDAC6; HDAC1 IC50 / HDAC6 IC50) | IC50 (human recombinant HDAC6; [4]) | Compound
 |  |  | > 50000 nM | 1022 fold | 48.9 nM | OCc1ccc(-c2cn(Cc3ccc(-c4nnc(C(F)F)o4)cc3F)nn2)cc1 [Compound 4476, (4-(1-(4-(5-(difluoromethyl)-1,3,4-oxadiazol-2-yl)-2-fluorobenzyl)-1H-1,2,3-triazol-4-yl)phenyl)methanol]
 |  |  | > 50000 nM | 1577 fold | 31.7 nM | FC(F)c1nnc(-c2ccc(Cn3cc(-c4ccc(-n5cncn5)cc4)nn3)nc2)o1 [Compound 4285, 2-(6-((4-(4-(1H-1,2,4-triazol-1-yl)phenyl)-1H-1,2,3-triazol-1-yl)methyl)pyridin-3-yl)-5-(difluoromethyl)-1,3,4-oxadiazole]
 |  |  | > 50000 nM | 1818 fold | 27.5 nM | Fc1ccc(-c2cn(Cc3ccc(-c4nnc(C(F)F)o4)cn3)nn2)cc1 [Compound 3855]
> 50000 nM | 769 fold | 65 nM |  |  |  | Fc1cc(-c2nnc(C(F)F)o2)ccc1Cn1cc(-c2ccc(CN3CC[C@H](F)C3)nc2)nn1 [Compound 17773, (S)-2-(difluoromethyl)-5-(3-fluoro-4-((4-(6-((3-fluoropyrrolidin-1-yl)methyl)pyridin-3-yl)-1H-1,2,3-triazol-1-yl)methyl)phenyl)-1,3,4-oxadiazole]
> 50000 nM | 4672 fold | 10.7 nM |  |  |  | FC(F)c1nnc(-c2ccc(Cn3cc(-c4ccc(CN5CCCC5)cc4)nn3)nc2)o1 [Compound 4560, 2-(difluoromethyl)-5-(6-((4-(4-(pyrrolidin-1-ylmethyl)phenyl)-1H-1,2,3-triazol-1-yl)methyl)pyridin-3-yl)-1,3,4-oxadiazole]
 |  |  | > 50000 nM | 215 fold | 232 nM | Cc1ccc(-c2cn(Cc3ccc(-c4nnc(C(F)F)o4)cc3F)nn2)cc1 [Compound 3733, 2-(difluoromethyl)-5-(3-fluoro-4-((4-(p-tolyl)-1H-1,2,3-triazol-1-yl)methyl)phenyl)-1,3,4-oxadiazole]

More lines, now with the values behind:

Compound | IC50 (human recombinant HDAC1; [1]) | HDAC6 selectivity (fold) (human recombinant HDAC6; HDAC6 over HDAC1) | IC50 (human recombinant HDAC6; [2]) | IC50 (human recombinant HDAC1; [3]) | HDAC6 selectivity (fold) (human recombinant HDAC6; HDAC1 IC50 / HDAC6 IC50) | IC50 (human recombinant HDAC6; [4])
Fc1cc(-c2nnc(C(F)F)o2)ccc1Cn1cc(-c2ccc(CN3CC4(COC4)C3)cc2)nn1 [Compound 4523, 6-(4-(1-(4-(5-(difluoromethyl)-1,3,4-oxadiazol-2-yl)-2-fluorobenzyl)-1H-1,2,3-triazol-4-yl)benzyl)-2-oxa-6-azaspiro[3.3]heptane] | > 50000 nM | 4504 fold | 11.1 nM |  |  | 
CN1CC(N2CCC(c3cccc(-c4cn(Cc5ccc(-c6nnc(C(F)F)o6)cc5F)nn4)c3)CC2)C1 [Compound 4294, 2-(difluoromethyl)-5-(3-fluoro-4-((4-(3-(1-(1-methylazetidin-3-yl)piperidin-4-yl)phenyl)-1H-1,2,3-triazol-1-yl)methyl)phenyl)-1,3,4-oxadiazole] |  |  |  | > 50000 nM | 791 fold | 63.2 nM
CN1CCN(c2cccc(-c3cn(Cc4ccc(-c5nnc(C(F)F)o5)cc4)nn3)c2F)CC1 [Compound 4483, 2-(difluoromethyl)-5-(4-((4-(2-fluoro-3-(4-methylpiperazin-1-yl)phenyl)-1H-1,2,3-triazol-1-yl)methyl)phenyl)-1,3,4-oxadiazole] |  |  |  | > 50000 nM | 1466 fold | 34.1 nM
FC(F)c1nnc(-c2ccc(Cn3cc(-c4ccnc(N5CCN(C6COC6)CC5)c4)nn3)nc2)o1 [Compound 4594, 2-(difluoromethyl)-5-(6-((4-(2-(4-(oxetan-3-yl)piperazin-1-yl)pyridin-4-yl)-1H-1,2,3-triazol-1-yl)methyl)pyridin-3-yl)-1,3,4-oxadiazole] | > 50000 nM | 2057 fold | 24.3 nM |  |  | 
OC1(c2cn(Cc3ccc(-c4nnc(C(F)F)o4)cn3)nn2)CCOC1 (stereo not drawn) [Compound 4277, 3-(1-((5-(5-(difluoromethyl)-1,3,4-oxadiazol-2-yl)pyridin-2-yl)methyl)-1H-1,2,3-triazol-4-yl)tetrahydrofuran-3-ol] |  |  |  | > 50000 nM | 212 fold | 235 nM
Fc1ccc(-c2cn(Cc3ccc(-c4nnc(C(F)F)o4)cc3)nn2)cc1N1CCN(C2CCC2)CC1 [Compound 4422, 2-(4-((4-(3-(4-cyclobutylpiperazin-1-yl)-4-fluorophenyl)-1H-1,2,3-triazol-1-yl)methyl)phenyl)-5-(difluoromethyl)-1,3,4-oxadiazol] |  |  |  | > 50000 nM | 127 fold | 392 nM
Fc1cc(-c2nnc(C(F)F)o2)ccc1Cn1cc(-c2csc(CN3CC[C@@H](F)C3)c2)nn1 [Compound 18180, (R)-2-(difluoromethyl)-5-(3-fluoro-4-((4-(5-((3-fluoropyrrolidin-1-yl)methyl)thiophen-3-yl)-1H-1,2,3-triazol-1-yl)methyl)phenyl)-1,3,4-oxadiazole] | > 50000 nM | 672 fold | 74.3 nM |  |  | 
FC(F)c1nnc(-c2ccc(Cn3cc(-c4cccc5c4CN(C4COC4)C5)nn3)cc2)o1 [Compound 4533, 2-(difluoromethyl)-5-(4-((4-(2-(oxetan-3-yl)isoindolin-4-yl)-1H-1,2,3-triazol-1-yl)methyl)phenyl)-1,3,4-oxadiazole] | > 50000 nM | 318 fold | 157 nM |  |  | 
FC(F)c1nnc(-c2ccc(Cn3cc(-c4cccc5[nH]ccc45)nn3)cc2)o1 [Compound 4078, 2-(4-((4-(1H-indol-4-yl)-1H-1,2,3-triazol-1-yl)methyl)phenyl)-5-(difluoromethyl)-1,3,4-oxadiazole] |  |  |  | > 50000 nM | 1424 fold | 35.1 nM
Fc1cc(-c2nnc(C(F)F)o2)ccc1Cn1cc(-c2cccc(N3C[C@@H]4C[C@H]3CN4)c2)nn1 [Compound 4316, 2-(4-((4-(3-((1S,4S)-2,5-diazabicyclo[2.2.1]heptan-2-yl)phenyl)-1H-1,2,3-triazol-1-yl)methyl)-3-fluorophenyl)-5-(difluoromethyl)-1,3,4-oxadiazole] |  |  |  | > 50000 nM | 206 fold | 242 nM
CCN1[C@H](C)CN(c2cccc(-c3cn(Cc4ccc(-c5nnc(C(F)F)o5)cc4F)nn3)c2)C[C@@H]1C [Compound 4444] |  |  |  | > 50000 nM | 1872 fold | 26.7 nM
CCN1CC(c2cccc(-c3cn(Cc4ccc(-c5nnc(C(F)F)o5)cc4)nn3)c2)C1 [Compound 4508, 2-(difluoromethyl)-5-(4-((4-(3-(1-ethylazetidin-3-yl)phenyl)-1H-1,2,3-triazol-1-yl)methyl)phenyl)-1,3,4-oxadiazole] | > 50000 nM | 1381 fold | 36.2 nM |  |  | 
Fc1cc(-c2nnc(C(F)F)o2)cnc1Cn1cc(-c2cccc(C3CCN(C4CCC4)CC3)c2)nn1 [Compound 18870, 2-(6-((4-(3-(1-cyclobutylpiperidin-4-yl)phenyl)-1H-1,2,3-triazol-1-yl)methyl)-5-fluoropyridin-3-yl)-5-(difluoromethyl)-1,3,4-oxadiazole] | > 50000 nM | 1123 fold | 44.5 nM |  |  | 
CCN1CCN(Cc2cccc(-c3cn(Cc4ccc(-c5nnc(C(F)F)o5)cc4)nn3)c2)CC1 [Compound 4415, 2-(difluoromethyl)-5-(4-((4-(3-((4-ethylpiperazin-1-yl)methyl)phenyl)-1H-1,2,3-triazol-1-yl)methyl)phenyl)-1,3,4-oxadiazole] |  |  |  | > 50000 nM | 545 fold | 91.7 nM
